# Measurements from patent publication US9775844B2, “Heterocyclic compounds and uses thereof” (Infinity Pharmaceuticals, Inc., priority 2014, dated 2017).
# Columns and labels:
# [1] = molecular target: PI3K δ (Homo sapiens (Human), UniProt O00329); test: PI3-Kinase Promega ADP-Glo Max assay; type: biochemical
# [2] = molecular target: PI3K γ (Homo sapiens (Human), UniProt P48736); test: PI3-Kinase Promega ADP-Glo Max assay; type: biochemical
# Experimental: (§1) Promega ADP-Glo Max assay kit (Cat. No. V7002) was utilized to determine IC50 values for α, β, δ and γ isoforms of human Class I PI3 kinases (Millipore). […] Reactions were incubated at room temperature for 2 hours followed by addition of 25 uL of stop solution. After a 40-minute incubation at room temperature, 50 uL of Promega detection mix was added followed by incubation for 1 hour at room temperature. Plates were then read on Envision plate reader in lunimescence mode. Data was converted to % inhibition using the following equation below:
# (§2) [formula] where S is the sample luminescence, Pos is a positive control without added PI3K, Neg is the negative control without added compound. Data was then plotted as % inhibition vs compound concentration.
# [3] = molecular target: PI3K-δ in RAJI cells (Homo sapiens (Human), UniProt O00329); test: RAJI p110 δ assay (PI3K-δ selective cellular assay, phospho-AKT); type: cell-based; settings: phospho-AKT; read-out: RAJI p110 δ assay IC50
# [4] = molecular target: PI3K-γ in RAW264.7 macrophages (Mus musculus (Mouse), UniProt Q9JHG7); test: Raw264.7 p110 γ assay (PI3K-γ selective cellular assay, C5a-stimulated phospho-AKT); type: cell-based; settings: for IC50: phospho-AKT, read-out: Raw264.7 p110 γ assay IC50
# Text: Briefly, serum-starved RAW264.7 cells are stimulated with a known GPCR agonist C5a. […] Cells can be treated with test compounds prior to, simultaneously with, or subsequent to the stimulation by C5a. RAW 264.7 cells respond to the complement component fragment C5a through activation of the C5a receptor, and the C5a receptor activates macrophages and induces cell migration.
# [5] = molecular target: PI3K β (Homo sapiens (Human), UniProt P42338); test: PI3-Kinase Promega ADP-Glo Max assay; type: biochemical
# Experimental: as §1, §2
# [6] = molecular target: PI3K α (Homo sapiens (Human), UniProt P42336); test: PI3-Kinase Promega ADP-Glo Max assay; type: biochemical
# PI3K α, sequence (P42336 whole entry): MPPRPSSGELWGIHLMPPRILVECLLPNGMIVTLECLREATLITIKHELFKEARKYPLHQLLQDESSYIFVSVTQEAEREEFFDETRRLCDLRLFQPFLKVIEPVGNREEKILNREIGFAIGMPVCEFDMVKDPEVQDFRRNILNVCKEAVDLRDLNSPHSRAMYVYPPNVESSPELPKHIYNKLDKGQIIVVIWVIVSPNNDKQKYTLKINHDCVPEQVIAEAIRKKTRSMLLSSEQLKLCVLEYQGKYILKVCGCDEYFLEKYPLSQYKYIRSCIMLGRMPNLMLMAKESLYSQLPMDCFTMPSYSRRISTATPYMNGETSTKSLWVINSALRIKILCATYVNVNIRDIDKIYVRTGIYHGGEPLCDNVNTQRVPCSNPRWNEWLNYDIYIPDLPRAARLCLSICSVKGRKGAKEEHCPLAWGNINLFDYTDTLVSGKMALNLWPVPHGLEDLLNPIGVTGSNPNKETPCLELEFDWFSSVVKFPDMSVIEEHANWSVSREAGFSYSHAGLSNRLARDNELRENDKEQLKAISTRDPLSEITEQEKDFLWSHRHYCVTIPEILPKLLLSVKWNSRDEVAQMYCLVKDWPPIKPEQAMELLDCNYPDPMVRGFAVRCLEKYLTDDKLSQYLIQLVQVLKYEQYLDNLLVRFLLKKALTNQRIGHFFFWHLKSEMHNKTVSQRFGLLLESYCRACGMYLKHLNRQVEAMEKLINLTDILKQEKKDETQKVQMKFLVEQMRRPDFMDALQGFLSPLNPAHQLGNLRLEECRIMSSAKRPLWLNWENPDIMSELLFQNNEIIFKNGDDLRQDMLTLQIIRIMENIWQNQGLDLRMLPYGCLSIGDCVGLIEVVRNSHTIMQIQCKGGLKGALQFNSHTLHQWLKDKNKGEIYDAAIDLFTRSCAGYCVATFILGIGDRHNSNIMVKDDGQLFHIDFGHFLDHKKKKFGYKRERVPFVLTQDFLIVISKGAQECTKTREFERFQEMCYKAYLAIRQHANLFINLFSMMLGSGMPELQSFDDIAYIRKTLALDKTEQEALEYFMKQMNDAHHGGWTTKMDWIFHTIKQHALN
# PI3K α, sequence (P27986 whole entry partner): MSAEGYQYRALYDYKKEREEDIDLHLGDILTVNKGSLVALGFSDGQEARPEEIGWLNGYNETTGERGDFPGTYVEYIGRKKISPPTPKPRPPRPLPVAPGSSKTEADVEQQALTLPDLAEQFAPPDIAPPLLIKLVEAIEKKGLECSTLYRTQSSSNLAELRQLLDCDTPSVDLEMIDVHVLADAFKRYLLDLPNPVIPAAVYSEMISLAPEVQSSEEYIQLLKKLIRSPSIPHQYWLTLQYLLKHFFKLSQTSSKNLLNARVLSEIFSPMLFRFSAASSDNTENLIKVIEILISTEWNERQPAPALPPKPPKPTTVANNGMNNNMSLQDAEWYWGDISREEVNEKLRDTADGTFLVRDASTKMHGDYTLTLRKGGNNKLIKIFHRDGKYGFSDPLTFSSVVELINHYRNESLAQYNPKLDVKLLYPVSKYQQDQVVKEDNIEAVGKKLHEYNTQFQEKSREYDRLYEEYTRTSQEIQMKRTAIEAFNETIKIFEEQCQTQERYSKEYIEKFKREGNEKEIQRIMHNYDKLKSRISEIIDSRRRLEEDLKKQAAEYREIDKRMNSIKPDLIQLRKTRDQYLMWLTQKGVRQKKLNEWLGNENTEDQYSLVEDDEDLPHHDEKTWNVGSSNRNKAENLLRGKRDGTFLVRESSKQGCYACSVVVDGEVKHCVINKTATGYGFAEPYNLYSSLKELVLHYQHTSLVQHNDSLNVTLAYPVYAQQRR
# Experimental: as §1, §2
# PI3K γ, sequence (P48736 whole entry): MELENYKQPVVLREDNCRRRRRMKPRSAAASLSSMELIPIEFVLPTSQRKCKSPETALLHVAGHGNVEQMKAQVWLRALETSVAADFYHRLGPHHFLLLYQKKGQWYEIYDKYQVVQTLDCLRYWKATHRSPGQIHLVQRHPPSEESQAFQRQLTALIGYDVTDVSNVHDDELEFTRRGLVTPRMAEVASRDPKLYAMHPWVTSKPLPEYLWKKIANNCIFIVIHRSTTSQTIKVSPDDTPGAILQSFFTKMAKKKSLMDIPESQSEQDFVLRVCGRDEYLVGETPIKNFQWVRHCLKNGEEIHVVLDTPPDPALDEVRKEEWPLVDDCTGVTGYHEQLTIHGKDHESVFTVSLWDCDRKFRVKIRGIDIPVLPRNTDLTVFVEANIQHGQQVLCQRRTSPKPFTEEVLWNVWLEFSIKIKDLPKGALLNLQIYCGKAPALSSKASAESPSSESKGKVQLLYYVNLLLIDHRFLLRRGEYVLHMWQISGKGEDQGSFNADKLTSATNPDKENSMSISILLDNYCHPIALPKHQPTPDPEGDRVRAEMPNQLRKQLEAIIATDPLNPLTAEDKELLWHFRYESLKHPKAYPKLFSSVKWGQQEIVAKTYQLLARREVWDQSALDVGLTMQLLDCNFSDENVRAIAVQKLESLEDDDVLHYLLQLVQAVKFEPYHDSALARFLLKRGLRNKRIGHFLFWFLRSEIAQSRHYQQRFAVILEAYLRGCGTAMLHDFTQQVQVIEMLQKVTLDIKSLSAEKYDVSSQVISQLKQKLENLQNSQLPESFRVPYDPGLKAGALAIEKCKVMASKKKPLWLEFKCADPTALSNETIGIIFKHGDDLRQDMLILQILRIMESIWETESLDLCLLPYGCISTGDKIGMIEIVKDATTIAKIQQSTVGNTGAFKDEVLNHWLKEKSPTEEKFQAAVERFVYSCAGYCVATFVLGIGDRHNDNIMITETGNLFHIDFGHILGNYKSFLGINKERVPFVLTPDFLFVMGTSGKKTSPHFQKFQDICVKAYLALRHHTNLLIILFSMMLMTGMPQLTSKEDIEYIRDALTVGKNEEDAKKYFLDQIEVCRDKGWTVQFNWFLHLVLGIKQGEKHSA
# PI3K δ, sequence (O00329 whole entry): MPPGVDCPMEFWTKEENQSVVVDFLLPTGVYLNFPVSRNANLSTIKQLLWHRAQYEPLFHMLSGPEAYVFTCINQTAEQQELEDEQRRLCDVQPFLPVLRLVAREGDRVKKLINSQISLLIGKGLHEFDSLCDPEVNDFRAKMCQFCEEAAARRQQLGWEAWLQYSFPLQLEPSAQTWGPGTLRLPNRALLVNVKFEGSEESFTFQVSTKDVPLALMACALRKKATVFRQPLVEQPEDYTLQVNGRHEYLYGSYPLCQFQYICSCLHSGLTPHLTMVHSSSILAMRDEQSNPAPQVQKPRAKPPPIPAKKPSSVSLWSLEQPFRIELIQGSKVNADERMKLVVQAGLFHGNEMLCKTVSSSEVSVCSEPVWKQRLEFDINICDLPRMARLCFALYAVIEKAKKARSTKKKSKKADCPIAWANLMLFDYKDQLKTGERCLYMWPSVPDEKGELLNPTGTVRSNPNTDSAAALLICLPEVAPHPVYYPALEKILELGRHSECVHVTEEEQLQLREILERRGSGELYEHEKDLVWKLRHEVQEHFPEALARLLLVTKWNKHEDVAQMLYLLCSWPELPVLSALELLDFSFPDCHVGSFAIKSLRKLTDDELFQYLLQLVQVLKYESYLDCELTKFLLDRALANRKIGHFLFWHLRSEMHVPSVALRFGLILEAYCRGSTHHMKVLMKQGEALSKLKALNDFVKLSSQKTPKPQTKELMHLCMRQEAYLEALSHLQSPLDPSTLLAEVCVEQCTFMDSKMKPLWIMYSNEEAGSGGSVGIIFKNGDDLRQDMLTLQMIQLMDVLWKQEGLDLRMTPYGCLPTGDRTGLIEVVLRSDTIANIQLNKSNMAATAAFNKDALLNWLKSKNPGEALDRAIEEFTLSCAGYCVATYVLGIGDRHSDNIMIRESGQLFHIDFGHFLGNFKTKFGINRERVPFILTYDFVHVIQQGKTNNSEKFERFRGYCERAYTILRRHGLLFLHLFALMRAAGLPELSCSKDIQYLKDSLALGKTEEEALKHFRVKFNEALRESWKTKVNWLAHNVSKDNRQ
# PI3K δ, sequence (P27986 whole entry partner): as the sequence (P27986 whole entry partner) above
# PI3K-δ in RAJI cells, sequence (O00329 whole entry): as the sequence (O00329 whole entry) above
# PI3K-δ in RAJI cells, sequence (P27986 whole entry partner): as the sequence (P27986 whole entry partner) above
Structure (SMILES),IC50 [1],IC50 [2],PI3K δ/PI3K γ IC50 (selectivity) [2],IC50 [3],RAJIδ/Raw264.7 γ IC50 (selectivity) [4],IC50 [4],IC50 [5],IC50 [6]
C[C@H](NC(=O)c1c(N)nn2cccnc12)c1cc2cccc(C#CC3CC3)c2c(=O)n1C1CC1 [Compound 24],1 to 5 µM,1 to 5 µM,W (W = >1 to <10),0.1 to 0.5 µM,W (W = >1 to <10),0.001 to 0.05 µM,1 to 5 µM,1 to 5 µM
CC#Cc1cccc2nc([C@H](C)NC(=O)c3c(N)nn4cccnc34)n(-c3ccccc3)c(=O)c12 [Compound 1],0.5 to 1 µM,0.001 to 0.1 µM,X (X = 10 to <50),0.001 to 0.1 µM,X (X = 10 to <50),0.001 to 0.05 µM,1 to 5 µM,5 to 10 µM
COc1cc(C#Cc2cccc3cc([C@H](C)NC(=O)c4c(N)nn5cccnc45)n(-c4ccccc4)c(=O)c23)ccn1 [Compound 28],5 to 10 µM,1 to 5 µM,W (W = >1 to <10),0.1 to 0.5 µM,X (X = 10 to <50),0.001 to 0.05 µM,5 to 10 µM,5 to 10 µM
Cc1ncsc1C#Cc1cccc2cc([C@H](C)NC(=O)c3c(N)nn4cccnc34)n(-c3ccccc3)c(=O)c12 [Compound 75],5 to 10 µM,1 to 5 µM,W (W = >1 to <10),1 to 10 µM,Y (Y = 50 to <850),0.001 to 0.05 µM,5 to 10 µM,5 to 10 µM
Cc1nc(C#Cc2cccc3cc([C@H](C)NC(=O)c4c(N)nn5cccnc45)n(-c4ccccc4)c(=O)c23)cs1 [Compound 40],5 to 10 µM,0.001 to 0.1 µM,Y (Y = 50 to <850),0.1 to 0.5 µM,Y (Y = 50 to <850),0.001 to 0.05 µM,5 to 10 µM,1 to 5 µM
Cc1ccncc1C#Cc1cccc2cc([C@H](C)NC(=O)c3c(N)nn4cccnc34)n(-c3ccccc3)c(=O)c12 [Compound 61],5 to 10 µM,0.5 to 1 µM,X (X = 10 to <50),1 to 10 µM,Y (Y = 50 to <850),0.001 to 0.05 µM,5 to 10 µM,5 to 10 µM
Cc1nn(C)c(C)c1C#Cc1cccc2cc([C@H](C)NC(=O)c3c(N)nn4cccnc34)n(-c3ccccc3)c(=O)c12 [Compound 37],5 to 10 µM,1 to 5 µM,W (W = >1 to <10),1 to 10 µM,Y (Y = 50 to <850),0.001 to 0.05 µM,5 to 10 µM,5 to 10 µM
C[C@H](NC(=O)c1c(N)nn2cccnc12)c1cc2cccc(C#Cc3cc[nH]c(=O)c3)c2c(=O)n1-c1ccccc1 [Compound 31],5 to 10 µM,0.1 to 0.5 µM,X (X = 10 to <50),0.1 to 0.5 µM,W (W = >1 to <10),0.05 to 0.1 µM,5 to 10 µM,5 to 10 µM
C[C@H](NC(=O)c1c(N)nn2cccnc12)c1cc2cccc(C#Cc3cncs3)c2c(=O)n1-c1ccccc1 [Compound 41],5 to 10 µM,0.1 to 0.5 µM,Y (Y = 50 to <850),0.1 to 0.5 µM,Y (Y = 50 to <850),0.001 to 0.05 µM,5 to 10 µM,5 to 10 µM
Cc1nc(C#Cc2cccc3nc([C@H](C)NC(=O)c4c(N)nn5cccnc45)n(-c4ccccc4)c(=O)c23)cs1 [Compound 63],5 to 10 µM,0.001 to 0.1 µM,Y (Y = 50 to <850),0.5 to 1 µM,Y (Y = 50 to <850),0.001 to 0.05 µM,5 to 10 µM,5 to 10 µM
C[C@H](NC(=O)c1c(N)nn2cccnc12)c1cc2cccc(C#CCN3CCN(C)CC3)c2c(=O)n1-c1ccccc1 [Compound 56],5 to 10 µM,0.1 to 0.5 µM,X (X = 10 to <50),0.1 to 0.5 µM,V (V = 0.1 to 1),0.1 to 10 µM,5 to 10 µM,5 to 10 µM
C[C@H](NC(=O)c1c(N)nn2cccnc12)c1cc2cccc(C#CC3CC3)c2c(=O)n1-c1ccccc1 [Compound 9],1 to 5 µM,0.1 to 0.5 µM,X (X = 10 to <50),0.1 to 0.5 µM,Y (Y = 50 to <850),0.001 to 0.05 µM,1 to 5 µM,1 to 5 µM
C[C@H](NC(=O)c1c(N)nn2cccnc12)c1cc2cccc(C#Cc3cocn3)c2c(=O)n1-c1ccccc1 [Compound 66],1 to 5 µM,0.001 to 0.1 µM,X (X = 10 to <50),0.1 to 0.5 µM,X (X = 10 to <50),0.001 to 0.05 µM,1 to 5 µM,5 to 10 µM
C[C@H](NC(=O)c1c(N)nn2cccnc12)c1cc2cccc(CC(=O)c3cnn(C)c3)c2c(=O)n1-c1ccccc1 [Compound 91],5 to 10 µM,0.5 to 1 µM,W (W = >1 to <10),0.1 to 0.5 µM,W (W = >1 to <10),0.1 to 10 µM,5 to 10 µM,5 to 10 µM
COCC#Cc1cccc2cc([C@H](C)NC(=O)c3c(N)nn4cccnc34)n(-c3ccccc3)c(=O)c12 [Compound 12],1 to 5 µM,0.001 to 0.1 µM,X (X = 10 to <50),0.1 to 0.5 µM,X (X = 10 to <50),0.001 to 0.05 µM,1 to 5 µM,5 to 10 µM
CC(C)C#Cc1cccc2cc([C@H](C)NC(=O)c3c(N)nn4cccnc34)n(-c3ccccc3)c(=O)c12 [Compound 2],5 to 10 µM,0.5 to 1 µM,X (X = 10 to <50),0.5 to 1 µM,Y (Y = 50 to <850),0.001 to 0.05 µM,5 to 10 µM,5 to 10 µM
C[C@H](NC(=O)c1c(N)nn2cccnc12)c1cc2cccc(C#CC(C)(C)N)c2c(=O)n1-c1ccccc1 [Compound 8],5 to 10 µM,0.5 to 1 µM,X (X = 10 to <50),1 to 10 µM,W (W = >1 to <10),0.1 to 10 µM,5 to 10 µM,5 to 10 µM
C[C@H](NC(=O)c1c(N)nn2cccnc12)c1cc2cccc(C#Cc3cccnc3)c2c(=O)n1-c1ccccc1 [Compound 17],5 to 10 µM,0.1 to 0.5 µM,Y (Y = 50 to <850),0.1 to 0.5 µM,Y (Y = 50 to <850),0.001 to 0.05 µM,5 to 10 µM,5 to 10 µM
C[C@H](NC(=O)c1c(N)nn2cccnc12)c1cc2cccc(C#CCN3CCCC3=O)c2c(=O)n1-c1ccccc1 [Compound 14],0.001 to 0.5 µM,0.001 to 0.1 µM,X (X = 10 to <50),0.001 to 0.1 µM,W (W = >1 to <10),0.001 to 0.05 µM,1 to 5 µM,1 to 5 µM
CC(=O)N1CCC(C#Cc2cccc3cc([C@H](C)NC(=O)c4c(N)nn5cccnc45)n(-c4ccccc4)c(=O)c23)CC1 [Compound 82],5 to 10 µM,0.1 to 0.5 µM,X (key: V = 0.1 to 1; W = >1 to <10; X = 10 to <50; Y = 50 to <850),0.5 to 1 µM,X (key: V = 0.1 to 1; W = >1 to <10; X = 10 to <50; Y = 50 to <850),0.001 to 0.05 µM,5 to 10 µM,5 to 10 µM
Cc1nn(C)cc1C#Cc1cccc2cc([C@H](C)NC(=O)c3c(N)nn4cccnc34)n(-c3ccccc3)c(=O)c12 [Compound 19],5 to 10 µM,0.1 to 0.5 µM,Y (Y = 50 to <850),0.5 to 1 µM,Y (Y = 50 to <850),0.001 to 0.05 µM,5 to 10 µM,5 to 10 µM
C[C@H](NC(=O)c1c(N)nn2cccnc12)c1cc2cccc(C#CC3CCNCC3)c2c(=O)n1-c1ccccc1 [Compound 72],5 to 10 µM,0.5 to 1 µM,X (X = 10 to <50),1 to 10 µM,W (W = >1 to <10),0.1 to 10 µM,5 to 10 µM,5 to 10 µM
COC(C)C#Cc1cccc2cc([C@H](C)NC(=O)c3c(N)nn4cccnc34)n(-c3ccccc3)c(=O)c12 (some centres unmarked) [Compound 22],5 to 10 µM,0.1 to 0.5 µM,X (X = 10 to <50),1 to 10 µM,X (X = 10 to <50),0.001 to 0.05 µM,5 to 10 µM,5 to 10 µM
Cc1ncc(C#Cc2cccc3cc([C@H](C)NC(=O)c4c(N)nn5cccnc45)n(-c4ccccc4)c(=O)c23)s1 [Compound 76],5 to 10 µM,0.1 to 0.5 µM,Y (Y = 50 to <850),0.1 to 0.5 µM,X (X = 10 to <50),0.001 to 0.05 µM,5 to 10 µM,5 to 10 µM
COc1ccc(C#Cc2cccc3cc([C@H](C)NC(=O)c4c(N)nn5cccnc45)n(-c4ccccc4)c(=O)c23)cn1 [Compound 6],5 to 10 µM,0.1 to 0.5 µM,Y (Y = 50 to <850),0.5 to 1 µM,X (X = 10 to <50),0.001 to 0.05 µM,5 to 10 µM,5 to 10 µM
